Experimental findings from ChEMBL document CHEMBL1201862, “PubChem BioAssay data set” (2004) are described below.

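Test compounds were applied to cells in 96-well plates for 48 hours at 5 doses. Here, GI50 denotes the concentration required for 50% inhibition of growth.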 Calls of active or inactive are those of the source. Cut-off read from the data, not from the text of the source: active = GI50 up to about 1.1 µM and inactive = higher.

Test systems include UACC-257; OVCAR-5; UO-31; CCRF-CEM; SNB-19; HCT-15; OVCAR-8; OVCAR-4; HCT-116; SK-MEL-2; A549; SF-268; IGROV-1; Malme-3M; COLO 205; HCC 2998; SK-MEL-28; UACC-62; NCI-H23; OVCAR-3.
Common to all, as to assay: NCI tumour cell line growth inhibition, 48 h

Turning to `Cn1c(=O)[nH]c2c(c1=O)C(=O)CN2`, the GI50 was > 100 µM (inactive) in the experiment with UACC-257; > 100 µM (inactive) with OVCAR-5; > 100 µM (inactive) in the experiment with UO-31; > 100 µM (inactive) in the experiment on CCRF-CEM; > 100 µM (inactive) in the experiment on SNB-19; more than 100 µM in the experiment with HCT-15. Besides, the GI50 in the experiment on OVCAR-8, in the experiment on OVCAR-4, in the experiment on HCT-116, in the experiment with SK-MEL-2, in the experiment with A549 and in the experiment on SF-268 was > 100 µM (inactive) each time. For the same compound, the GI50 in the experiment with IGROV-1, in the experiment with Malme-3M, with COLO 205, in the experiment with HCC 2998 and in the experiment on SK-MEL-28 was > 100 µM (inactive) in each case.
Consider `S=C(N/N=C(/c1ccccc1)c1ccccn1)Nc1cccc(Cl)c1`, for which the GI50 with UACC-257 is < 0.0475 µM (active); in the experiment with OVCAR-5, 0.984 µM (active); with UO-31 it was 0.566 µM (active); with CCRF-CEM, < 0.0258 µM (active); in the experiment on SNB-19, 3.01 µM (inactive); in the experiment on OVCAR-8, 0.0454 µM (active). Moreover, the GI50 in the experiment on UACC-62 is 201 nM (active); in the experiment on OVCAR-4, 0.0524 µM (active); in the experiment with NCI-H23 it was 1.04 µM (active); in the experiment with HCT-116 it was < 0.0189 µM (active); in the experiment on SK-MEL-2 it was 0.839 µM (active); in the experiment on A549, 1.55 µM (inactive). In addition, the GI50 in the experiment on SF-268 was 0.462 µM (active); in the experiment with Malme-3M it was 0.119 µM (active); in the experiment with COLO 205, < 0.0315 µM (active); in the experiment with HCC 2998, 0.748 µM (active); in the experiment with SK-MEL-28, 1.01 µM (active).
As to `CCN(CC)c1ccc2cc(C(=O)Nc3ccc4[nH]c(C(=O)N5C[C@@H](CCl)c6c5cc(OC(=O)Nc5ccccc5)c5[nH]cc(C)c65)cc4c3)oc2c1` [CARZELESIN], the GI50 with UACC-257 was 384 µM (inactive); in the experiment with OVCAR-5 it was 0.000601 µM (active); with UO-31 it was 668 µM (inactive); in the experiment with CCRF-CEM it was 0.000168 µM (active); with SNB-19 it was 294 µM (inactive); with HCT-15, 0.000676 µM. The GI50 is 234 µM (inactive) with OVCAR-8; 0.0461 nM (active) in the experiment on UACC-62; 0.000426 µM (active) in the experiment on OVCAR-4; 0.000311 µM (active) in the experiment with NCI-H23; 152 µM (inactive) in the experiment with HCT-116; 0.000601 µM (active) with SK-MEL-2. Moreover, the GI50 was 0.000162 µM (active) in the experiment with A549; 245 µM (inactive) in the experiment on OVCAR-3; 0.00021 µM (active) in the experiment with SF-268; 0.000506 µM (active) with IGROV-1; 0.000256 µM (active) in the experiment on Malme-3M; 434 µM (inactive) with HCC 2998. Besides, the GI50 in the experiment with SK-MEL-28 is 0.000479 µM (active).
For the compound `CC(C)(C)[Si](OC1CC(n2cnc3c(N)ncnc32)OC1CO)(c1ccccc1)c1ccccc1` (configuration not stated), the GI50 with UACC-257 was 66.5 µM (inactive); in the experiment on OVCAR-5 it was 18.6 µM (inactive); with UO-31 it was 23.7 µM (inactive); in the experiment with CCRF-CEM, 12.9 µM (inactive); in the experiment on SNB-19, 20.2 µM (inactive); in the experiment on HCT-15, more than 10 µM. The GI50 was 18.9 µM (inactive) in the experiment on OVCAR-8; 15 µM (inactive) in the experiment on OVCAR-4; 13.9 µM (inactive) in the experiment with NCI-H23; 17.2 µM (inactive) in the experiment with HCT-116; 18.8 µM (inactive) with SK-MEL-2; 15.2 µM (inactive) in the experiment on A549. In addition, the GI50 with OVCAR-3 was 16.6 µM (inactive); in the experiment with SF-268, 16.1 µM (inactive); in the experiment with IGROV-1, 20.8 µM (inactive); with Malme-3M, 19 µM (inactive); with COLO 205 it was 30.3 µM (inactive); in the experiment with HCC 2998 it was 67.5 µM (inactive). Also, the GI50 with SK-MEL-28 was 21.5 µM (inactive).
